Measured values from US20250188069A1, “COMPOUNDS AND METHODS FOR DEGRADING CASEIN KINASE 1 ALPHA” (PIN THERAPEUTICS, INC., priority 2022, published 2025).
Where a name gives a salt, the structure may show the parent alone. Read-outs that look alike come from different tables or passages of the source.

Key:
Assay type in all cases: cell-based
MV-4-11 cells = assay: AML cell viability assay (RealTime-Glo); conditions: Homo sapiens, MV4-11, IC50 class, MV-4-11 cells, read-out: Cell viability classification
CK1α [1] = biological target: T1, CK1α (Homo sapiens, UniProt P48729+Q96SW2); assay: CK1α HiBiT assay in CK1a_HiBiT_Jurkat cells; conditions: DC50 class, 16 hours, Nano-Glo HiBiT Lytic Detection, read-out: CK1α degradation classification
Procedure: CK1a_HiBiT_Jurkat cells were culture in RPMI 1640 medium (Gibco, 11875093) with 10% FBS under standard tissue culture conditions. Briefly, Compounds of the present disclosure was added to 30,000 cells in a white 96-well plate (9-point dose response, top concentration […], half-log serial dilution, final DMSO concentration 0.5%) and incubated for 16 hours. CK1a level was determined in along with the Nano-Glo HiBiT Lytic Detection system [Promega N3050] with final concentration of 1 x. The luminescence was normalized to that of DMSO-treated samples. DC50 values were obtained using three-parameter non-linear regressions using Prism (GraphPad). The compounds are classified based on DC50 values as follows. • A: DC50 is less than or equal to 1×10^−7; • B: DC50 is greater than 1×10^−7 & less than or equal to 1×10^−6; • C: DC50 is greater than 1×10^−6; • NA: not calculated (no activity detected, <25% viability reduction at 1 uM)

CK1α [2] = biological target: T1, CK1α; assay: CK1α degradation, flow cytometry in MV4-11 cells; parameters: CK1α levels were determined in MV-4-11 cells using Jess (Protein Simple); host or cells: MV-4-11; conditions: % reduction of CK1α compared to DMSO, MV4-11 cells at 316 nM for 16 hours, read-out: CK1α degradation classification
[3] = RealTime-Glo after 44 hrs of treatment (TABLE 5)
[4] = RealTime-Glo after 44 hrs of treatment (TABLE 3)

T1 sequence (P48729 whole entry): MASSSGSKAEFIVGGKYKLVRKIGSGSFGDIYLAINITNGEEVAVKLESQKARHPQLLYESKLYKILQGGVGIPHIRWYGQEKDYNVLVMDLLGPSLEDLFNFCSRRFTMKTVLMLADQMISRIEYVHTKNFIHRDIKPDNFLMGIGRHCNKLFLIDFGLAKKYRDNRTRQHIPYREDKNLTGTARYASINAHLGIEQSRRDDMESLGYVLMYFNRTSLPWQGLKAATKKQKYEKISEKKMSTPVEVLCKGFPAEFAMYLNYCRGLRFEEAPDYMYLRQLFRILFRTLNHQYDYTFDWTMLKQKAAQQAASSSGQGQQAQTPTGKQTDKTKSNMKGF
T1 sequence (Q96SW2 whole entry): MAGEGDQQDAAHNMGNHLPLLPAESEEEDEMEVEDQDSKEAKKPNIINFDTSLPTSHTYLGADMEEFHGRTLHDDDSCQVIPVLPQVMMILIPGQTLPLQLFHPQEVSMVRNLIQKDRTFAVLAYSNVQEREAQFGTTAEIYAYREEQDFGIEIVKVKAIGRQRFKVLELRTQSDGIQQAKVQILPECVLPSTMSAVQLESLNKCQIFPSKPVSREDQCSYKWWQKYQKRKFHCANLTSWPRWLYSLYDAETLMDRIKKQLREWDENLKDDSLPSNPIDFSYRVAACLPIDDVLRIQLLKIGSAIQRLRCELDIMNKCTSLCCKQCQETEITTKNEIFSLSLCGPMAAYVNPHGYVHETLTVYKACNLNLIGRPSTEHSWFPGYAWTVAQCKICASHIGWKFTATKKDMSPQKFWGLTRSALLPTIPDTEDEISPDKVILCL
T1 sequence (Q16531 whole entry partner): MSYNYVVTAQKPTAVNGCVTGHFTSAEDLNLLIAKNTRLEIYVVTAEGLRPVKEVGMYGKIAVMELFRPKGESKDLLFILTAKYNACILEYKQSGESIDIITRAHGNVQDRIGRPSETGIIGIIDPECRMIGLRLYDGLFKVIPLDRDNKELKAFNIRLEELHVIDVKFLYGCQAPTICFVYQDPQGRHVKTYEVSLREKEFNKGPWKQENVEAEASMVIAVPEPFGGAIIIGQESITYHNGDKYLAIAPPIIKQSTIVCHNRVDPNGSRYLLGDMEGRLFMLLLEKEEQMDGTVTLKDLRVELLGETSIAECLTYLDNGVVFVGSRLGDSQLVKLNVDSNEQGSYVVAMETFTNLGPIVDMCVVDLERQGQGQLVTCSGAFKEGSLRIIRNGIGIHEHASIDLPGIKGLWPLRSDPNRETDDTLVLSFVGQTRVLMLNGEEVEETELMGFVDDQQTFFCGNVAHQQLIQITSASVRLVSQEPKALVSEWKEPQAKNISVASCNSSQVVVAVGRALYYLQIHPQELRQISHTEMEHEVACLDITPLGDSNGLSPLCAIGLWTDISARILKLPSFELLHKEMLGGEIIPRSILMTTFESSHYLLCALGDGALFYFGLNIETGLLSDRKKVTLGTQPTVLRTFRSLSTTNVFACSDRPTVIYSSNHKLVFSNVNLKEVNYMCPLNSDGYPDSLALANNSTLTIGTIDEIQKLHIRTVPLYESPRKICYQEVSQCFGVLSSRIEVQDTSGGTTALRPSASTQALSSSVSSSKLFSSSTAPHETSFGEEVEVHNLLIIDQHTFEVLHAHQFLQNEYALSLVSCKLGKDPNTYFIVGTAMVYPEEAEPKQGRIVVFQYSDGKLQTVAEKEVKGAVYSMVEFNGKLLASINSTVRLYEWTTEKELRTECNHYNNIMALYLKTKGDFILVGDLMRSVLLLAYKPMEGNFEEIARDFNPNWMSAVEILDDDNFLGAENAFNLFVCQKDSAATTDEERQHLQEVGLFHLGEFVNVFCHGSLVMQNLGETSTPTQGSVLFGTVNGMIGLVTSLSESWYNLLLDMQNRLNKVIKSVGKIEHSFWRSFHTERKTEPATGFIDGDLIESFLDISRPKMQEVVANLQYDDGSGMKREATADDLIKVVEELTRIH

Row | Structure (SMILES) | IC50 (MV-4-11 cells; [3]) | DC50 (CK1α [1]) | IC50 (MV-4-11 cells; [4]) | Dmax at 0.316 µM (CK1α [2])
1 | O=C1CCC(N2Cc3c(cc(F)cc3N(CCC3CC3)[C@H]3CC[C@H](NCC4(C(F)(F)F)CC4)CC3)C2=O)C(=O)N1 (stereo partly shown) [Compound 658, 3-{4-[(2-cyclopropylethyl)[(1r,4r)-4-({[1-(trifluoromethyl)cyclopropyl]methyl}amino)cyclohexyl]amino]-6-fluoro-1-oxo-3H-isoindol-2-yl}piperidine-2,6-dione] | 100 to 1000 nM | ≤ 100 nM |  | 
2 | O=C1CCC(N2Cc3c(cccc3N(CCC3CC3)[C@H]3CC[C@H](NCc4nccs4)CC3)C2=O)C(=O)N1 (stereo partly shown) [Compound 663, 3-{4-[(2-cyclopropylethyl)[(1r,4r)-4-[(1,3-thiazol-2-ylmethyl)amino]cyclohexyl]amino]-1-oxo-3H-isoindol-2-yl}piperidine-2,6-dione] | 100 to 1000 nM | ≤ 100 nM |  | 
3 | O=C1CCC(N2Cc3c(cccc3N(CCC3CC3)[C@H]3CC[C@H](N4CCC(F)(F)C4)CC3)C2=O)C(=O)N1 (stereo partly shown) [Compound 670] | 100 to 1000 nM | ≤ 100 nM |  | 
4 | CN(CCCC(F)(F)F)[C@H]1CC[C@@H](N(CCC2CC2)c2cccc3c2CN(C2CCC(=O)NC2=O)C3=O)CC1 (stereo partly shown) [Compound 681A, 3-{4-[(2-cyclopropylethyl)[(1s,4s)-4-[methyl(4,4,4-trifluorobutyl)amino]cyclohexyl]amino]-1-oxo-3H-isoindol-2-yl}piperidine-2,6-dione] |  | 100 to 1000 nM |  | 
5 | O=C1CCC(N2Cc3c(cccc3N(CCC3CC3)[C@H]3CC[C@@H](N[C@H]4CC[C@@H]4C(F)(F)F)CC3)C2=O)C(=O)N1 (stereo partly drawn) [Compound 675A, 3-{4-[(2-cyclopropylethyl)[(1s,4s)-4-{[(1S,2S)-2-(trifluoromethyl)cyclobutyl]amino}cyclohexyl]amino]-1-oxo-3H-isoindol-2-yl}piperidine-2,6-dione; bis(trifluoroacetic acid)] |  | 100 to 1000 nM |  | 
6 | O=C1CCC(N2Cc3c(cccc3N(CCC3CC3)[C@H]3CC[C@@H](N4CCCC4)CC3)C2=O)C(=O)N1 (stereo partly shown) [Compound 669A] |  | 100 to 1000 nM |  | 
7 | CC1(C)CC(CN(c2cccc3c2CN(C2CCC(=O)NC2=O)C3=O)[C@H]2CC[C@@H](NCC3(C(F)(F)F)CC3)CC2)C1 (stereo partly shown) [Compound 657A, 3-(4-{[(3,3-dimethylcyclobutyl)methyl][(1s,4s)-4-({[1-(trifluoromethyl)cyclopropyl]methyl}amino)cyclohexyl]amino}-1-oxo-3H-isoindol-2-yl)piperidine-2,6-dione; bis(trifluoroacetic acid)] |  | > 1000 nM |  | 
8 | O=C1CCC(N2Cc3c(cccc3N(CCC3CC3)[C@H]3CC[C@@H](N4CC(C(F)(F)F)C4)CC3)C2=O)C(=O)N1 (stereo partly shown) [Compound 673A] |  | 100 to 1000 nM |  | 
9 | O=C1CCC(N2Cc3c(cccc3N(CCC3CC3)[C@H]3CC[C@@H](N4CCC(F)C4)CC3)C2=O)C(=O)N1 (stereo partly shown) [Compound 671A, 3-{4-[(2-cyclopropylethyl)[(1s,4s)-4-(3-fluoropyrrolidin-1-yl)cyclohexyl]amino]-1-oxo-3H-isoindol-2-yl}piperidine-2,6-dione] |  | 100 to 1000 nM |  | 
10 | O=C1CCC(N2Cc3c(cccc3N(CCC3CC3)[C@H]3CC[C@@H](N4CCC(F)(F)C4)CC3)C2=O)C(=O)N1 (stereo partly shown) [Compound 670A] |  | 100 to 1000 nM |  | 
11 | O=C1CCC(N2Cc3c(cccc3N(CC3CC4(CCC4)C3)[C@H]3CC[C@@H](NCC4(C(F)(F)F)CC4)CC3)C2=O)C(=O)N1 (stereo partly shown) [Compound 656A, 3-(1-oxo-4-{[(1s,4s)-4-({[1-(trifluoromethyl)cyclopropyl]methyl}amino)cyclohexyl]({spiro[3.3]heptan-2-ylmethyl})amino}-3H-isoindol-2-yl)piperidine-2,6-dione; trifluoroacetic acid] |  | > 1000 nM |  | 
12 | O=C1CCC(N2Cc3c(cccc3N(CCC3CC3)[C@H]3CC[C@@H](N4CCOCC4)CC3)C2=O)C(=O)N1 (stereo partly shown) [Compound 674A, 3-{4-[(2-cyclopropylethyl)[(1s,4s)-4-(morpholin-4-yl)cyclohexyl]amino]-1-oxo-3H-isoindol-2-yl}piperidine-2,6-dione] |  | 100 to 1000 nM |  | 
13 | COCCN(C)[C@H]1CC[C@@H](N(CCC2CC2)c2cccc3c2CN(C2CCC(=O)NC2=O)C3=O)CC1 (stereo partly shown) [Compound 680A] |  | 100 to 1000 nM |  | 
14 | O=C1CCC(N2Cc3c(cccc3N(CC3CC(F)(F)C3)[C@H]3CC[C@@H](NCC4(C(F)(F)F)CC4)CC3)C2=O)C(=O)N1 (stereo partly shown) [Compound 655A, 3-(4-{[(3,3-difluorocyclobutyl)methyl][(1s,4s)-4-({[1-(trifluoromethyl)cyclopropyl]methyl}amino)cyclohexyl]amino}-1-oxo-3H-isoindol-2-yl)piperidine-2,6-dione] |  | > 1000 nM |  | 
15 | CN(CCC(F)(F)F)[C@H]1CC[C@@H](N(CCC2CC2)c2cccc3c2CN(C2CCC(=O)NC2=O)C3=O)CC1 (stereo partly shown) [Compound 682A] |  | 100 to 1000 nM |  | 
16 | O=C1CCC(N2Cc3c(cccc3N(CCC3CC3)[C@H]3CC[C@@H](N4CCC(C(F)(F)F)C4)CC3)C2=O)C(=O)N1 (stereo partly shown) [Compound 672A, 3-{4-[(2-cyclopropylethyl)[(1s,4s)-4-[3-(trifluoromethyl)pyrrolidin-1-yl]cyclohexyl]amino]-1-oxo-3H-isoindol-2-yl}piperidine-2,6-dione; trifluoroacetic acid] |  | 100 to 1000 nM |  | 
17 | N#CCCCN[C@H]1CC[C@H](N(CCC2CC2)c2cccc3c2CN(C2CCC(=O)NC2=O)C3=O)CC1 (stereo partly shown) [Compound 543, 4-{[(1r,4r)-4-[(2-cyclopropylethyl)[2-(2,6-dioxopiperidin-3-yl)-1-oxo-3H-isoindol-4-yl]amino]cyclohexyl]amino}butanenitrile] |  |  | < 100 nM | > 75%
18 | CC#CCCN(CCCCN)c1cccc2c1CN(C1CCC(=O)NC1=O)C2=O (stereo not shown) [Compound 95, 3-(4-((4-aminobutyl)(pent-3-yn-1-yl)amino)-1-oxoisoindolin-2-yl)piperidine-2,6-dione, HCl] |  |  | 100 to 1000 nM | < 50%
19 | CCCCCN(c1cccc2c1CN(C1CCC(=O)NC1=O)C2=O)[C@H]1CCC[C@H](CN)C1 (stereo partly drawn) [Compound 329, 3-(4-(((1S,3S)-3-(aminomethyl)cyclohexyl)(pentyl)amino)-1-oxoisoindolin-2-yl)piperidine-2,6-dione, HCl] |  |  | 100 to 1000 nM | 50 to 75%
20 | CCCCCN(CCCCNCCC(C)C)c1cccc2c1CN(C1CCC(=O)NC1=O)C2=O (stereo not shown) [Compound 167, 3-(4-((4-(isopentylamino)butyl)(pentyl)amino)-1-oxoisoindolin-2-yl)piperidine-2,6-dione. HCl] |  |  | 100 to 1000 nM | > 75%
21 | N[C@@H]1CC[C@@H](N(CCC2CC2)c2cccc3c2CN(C2CCC(=O)NC2=O)C3=O)C[C@H]1F (stereo partly drawn) [Compound 521, 3-(4-(((1R,3R,4R)-4-amino-3-fluorocyclohexyl)(2-cyclopropylethyl)amino)-1-oxoisoindolin-2-yl)piperidine-2,6-dione; formic acid] |  |  | < 100 nM | > 75%
22 | O=C1CCC(N2Cc3c(cccc3N(CC3CC3)[C@H]3CC[C@H](NC4COC4)CC3)C2=O)C(=O)N1 (stereo partly shown) [Compound 534, 3-(4-((cyclopropylmethyl)((1r,4r)-4-(oxetan-3-ylamino)cyclohexyl)amino)-1-oxoisoindolin-2-yl)piperidine-2,6-dione] |  |  | < 100 nM | > 75%
23 | COC(C)(C)CN[C@H]1CC[C@@H](N(CCC2CC2)c2cccc3c2CN(C2CCC(=O)NC2=O)C3=O)CC1 (stereo partly shown) [Compound 541A, 3-(4-((2-cyclopropylethyl)((1s,4s)-4-((2-methoxy-2-methylpropyl)amino)cyclohexyl)amino)-1-oxoisoindolin-2-yl)piperidine-2,6-dione] |  |  | 100 to 1000 nM | 50 to 75%
24 | COCCN[C@H]1CC[C@H](N(CCC2CC2)c2cccc3c2CN(C2CCC(=O)NC2=O)C3=O)CC1 (stereo partly shown) [Compound 542, 3-{4-[(2-cyclopropylethyl)[(1r,4r)-4-[(2-methoxyethyl)amino]cyclohexyl]amino]-1-oxo-3H-isoindol-2-yl}piperidine-2,6-dione] |  |  | < 100 nM | > 75%
25 | C/C=C/CCN(CCCCN)c1cccc2c1CN(C1CCC(=O)NC1=O)C2=O (stereo not shown) [Compound 93, (E)-3-(4-((4-aminobutyl)(pent-3-en-1-yl)amino)-1-oxoisoindolin-2-yl)piperidine-2,6-dione hydrochloride] |  |  | < 100 nM | > 75%
26 | CC(C)CCN(c1cccc2c1CN(C1CCC(=O)NC1=O)C2=O)[C@H]1CC[C@H](N)CC1 (stereo partly shown) [Compound 238, 3-(4-(((1r,4r)-4-aminocyclohexyl)(isopentyl)amino)-1-oxoisoindolin-2-yl)piperidine-2,6-dione hydrochloride] |  |  | < 100 nM | > 75%
27 | O=C1CCC(N2Cc3c(cccc3N(CC3CC(F)(F)C3)[C@H]3CC[C@@H](NCCC(F)(F)F)CC3)C2=O)C(=O)N1 (stereo partly shown) [Compound 650A, 3-(4-{[(3,3-difluorocyclobutyl)methyl][(1s,4s)-4-[(3,3,3-trifluoropropyl)amino]cyclohexyl]amino}-1-oxo-3H-isoindol-2-yl)piperidine-2,6-dione] |  | > 1000 nM |  | 
